IC50 data for one molecule are collected here from patent US5298517A, “Angiotensin II receptor blocking agents” (American Cyanamid Company, priority 1993, dated 1994).

The target of this experiment is T1, Angiotensin II Receptor (Bos taurus, UniProt P25104).
T1 construct: The brownish tissue forming the adrenal cortex is scraped off and finely minced with scissors before homogenization; tissue local slaughter house (Maxwell-Cphen); host or cells: beef adrenal cortex, microsomal membranes
T1 sequence (P25104 1-359): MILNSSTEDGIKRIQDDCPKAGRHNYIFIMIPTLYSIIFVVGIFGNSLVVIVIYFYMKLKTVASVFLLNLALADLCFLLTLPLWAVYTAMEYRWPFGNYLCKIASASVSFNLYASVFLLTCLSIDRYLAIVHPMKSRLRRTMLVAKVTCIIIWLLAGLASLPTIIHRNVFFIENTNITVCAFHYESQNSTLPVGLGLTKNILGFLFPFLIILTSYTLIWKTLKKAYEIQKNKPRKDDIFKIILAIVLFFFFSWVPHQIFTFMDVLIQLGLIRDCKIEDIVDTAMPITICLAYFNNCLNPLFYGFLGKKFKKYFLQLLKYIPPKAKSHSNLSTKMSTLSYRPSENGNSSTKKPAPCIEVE
The experiment is described as follows: Angiotensin II receptor binding, displacement of [^125 I](Sar^1,Ile^8)AngII from beef adrenal cortex membranes. To be noted: pH 7.4, 60 min, room temperature, triplicate. An excerpt:
Beef adrenals are obtained from a local slaughter house (Maxwell-Cphen). [^125 I](Sar^1,Ile^8)AngII, S.A. 2200 Ci/mmole, is purchased from Dupont (NEN®, Boston, Mass.). All unlabeled AngII analogs, Dimethylsulfoxide (DMSO), nucleotides, bovine serum albumin (BSA) are purchased from Sigma Chemical Co., St. Louis, Mo. U.S.A.
Approximately sixteen (16) to twenty (20) beef adrenal glands are processed as follows: fresh adrenal glands received on crushed ice are cleaned of fatty tissues and the tough membranes encapsulating the glands are removed and discarded. The brownish tissue forming the adrenal cortex is scraped off and finely minced with scissors before homogenization. Care is taken to avoid contamination with medullary tissue during dissection. The scraped cortices are suspended in twenty volumes of an ice-cold buffer medium consisting of 10 mM Tris.HCl (pH 7.4 at 22° C.) and containing 1.0 mM EDTA and 0.2 M sucrose. Unless otherwise indicated, all subsequent operations are done at 4° C. […] This P2 pellet is discarded and the liquid phase is carefully decanted off in clean centrifuge tubes and recentrifuged at high speed ([…]) […] the protein content of the preparation is determined by the Lowry's method (Lowry, O. H., Rosebrough, N. F., Farr, A. L. and Randall, R. J., Protein measurement with Folin phenol reagent. J. Biol. Chem., […], 265-275, 1951). […]

One may read the IC50 as the concentration that gives 50% inhibition. Higher therefore signals weaker potency.

For `CCCCc1nc(Cl)c([C@@]2(C)C[C@@H]3CCCN3O2)n1Cc1ccc(-c2ccccc2-c2nn[nH]n2)cc1` (racemic) [Example 8, Cis-(+/-)-2-[2-Butyl-4-chloro-1-[[2'-(1H-tetrazol-5-yl)[1,1'-biphenyl]-4-yl]methyl]-1H-imidazol-5-yl]hexahydro-2-methyl-pyrrolo[1,2-b]isoxazole], the IC50 was 34 nM.
